assay: recombinant UMI read abundance after kanamycin selection (control-corrected) (log10(CPM+1)); higher = more efficient recombination; extreme values may be limits of the assay; sequences stand for … in AGTGCAGAGAAAATCGGCCAGTTTTCTCTGCCTGCAGTCCGCATGCCGTGGGACCCCTTGGGTTCTAACCTGTTGCCTAGATTTATGCAGCGGACTGCCTTTCTCCCAAAGTGATAAACCGG…AGGTTGGTTTCACT; site = the 11-nt donor
Procedure, shortened: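 Reported values are log10(CPM+1) from a pooled Escherichia coli screen of donor and donor-binding-loop pairs for the IS621 bridge recombinase. Selection used IPTG (0.07 mM) plus kanamycin, against unselected plating, each in two replicates. Recombinant UMIs were amplified across the donor–target junction, sequenced, converted to CPM, averaged over replicates and scaled by control-derived factors.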
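Also: IS621 bridge recombinase in Escherichia coli cells against a fixed T5 target plasmid.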

Point of comparison: “CACTCCTCATGGACCGGTTTTCCCGGTAATCCGTATTTGCC (site CACTCCTCTAG)”, “recombinant UMI read abundance (log10)” value 1.36. Against it:
- CACTCCTCATGGACCGGTTTTCCCGGTAATCCGTATTTGCC (site CAATCCTCTGG) — lower, 0.883
- CACTCCTCATGGACCGGTTTTCCCGGTAATCCGTATTTGCC (site CACACCTCTGG) — higher, 1.79
- CACTCCTCATGGACCGGTTTTCCCGGTAATCCGTATTTGCC (site CACCCCTCTGG) — higher, 2.8
- CACTCCTCATGGACCGGTTTTCCCGGTAATCCGTATTTGCC (site CACGCCTCTGG) — lower, 0.524
- CACTCCTCATGGACCGGTTTTCCCGGTAATCCGTATTTGCC (site CACTACTCTGG) — within 0.2 log units, 1.17
- CACTCCTCATGGACCGGTTTTCCCGGTAATCCGTATTTGCC (site CACTCATCTGG) — lower, 0.425
- CACTCCTCATGGACCGGTTTTCCCGGTAATCCGTATTTGCC (site CACTCCACTGG) — lower, 0.838
- CACTCCTCATGGACCGGTTTTCCCGGTAATCCGTATTTGCC (site CACTCCCCTGG) — lower, 0.105
- CACTCCTCATGGACCGGTTTTCCCGGTAATCCGTATTTGCC (site CACTCCGCTGG) — lower, 0.0071
- CACTCCTCATGGACCGGTTTTCCCGGTAATCCGTATTTGCC (site CACTCCTCTCG) — lower, 0.00305
- CACTCCTCATGGACCGGTTTTCCCGGTAATCCGTATTTGCC (site CACTCCTCTGA) — lower, 0.906
- CACTCCTCATGGACCGGTTTTCCCGGTAATCCGTATTTGCC (site CACTCCTCTGC) — lower, 0.0424
- CACTCCTCATGGACCGGTTTTCCCGGTAATCCGTATTTGCC (site CACTCCTCTGG) — higher, 3.11
- CACTCCTCATGGACCGGTTTTCCCGGTAATCCGTATTTGCC (site CACTCCTCTGT) — higher, 2.74
- CACTCCTCATGGACCGGTTTTCCCGGTAATCCGTATTTGCC (site CACTCCTCTTG) — higher, 2.48
- CACTCCTCATGGACCGGTTTTCCCGGTAATCCGTATTTGCC (site CACTCGTCTGG) — lower, 0
- CACTCCTCATGGACCGGTTTTCCCGGTAATCCGTATTTGCC (site CACTCTTCTGG) — lower, 0
- CACTCCTCATGGACCGGTTTTCCCGGTAATCCGTATTTGCC (site CACTGCTCTGG) — lower, 0.00619
- CACTCCTCATGGACCGGTTTTCCCGGTAATCCGTATTTGCC (site CACTTCTCTGG) — lower, 0
- CACTCCTCATGGACCGGTTTTCCCGGTAATCCGTATTTGCC (site CAGTCCTCTGG) — within 0.2 log units, 1.2
- CACTCCTCATGGACCGGTTTTCCCGGTAATCCGTATTTGCC (site CATTCCTCTGG) — higher, 1.62
- CACTCCTCATGGACCGGTTTTCCCGGTAATCCGTATTTGCC (site CCCTCCTCTGG) — lower, 0.97
- CACTCCTCATGGACCGGTTTTCCCGGTAATCCGTATTTGCC (site CGCTCCTCTGG) — higher, 1.95
- CACTCCTCATGGACCGGTTTTCCCGGTAATCCGTATTTGCC (site CTCTCCTCTGG) — higher, 2.29
- CACTCCTCATGGACCGGTTTTCCCGGTAATCCGTATTTGCC (site GACTCCTCTGG) — lower, 0
- CACTCCTCATGGACCGGTTTTCCCGGTAATCCGTATTTGCC (site TACTCCTCTGG) — within 0.2 log units, 1.39
- CACTCCTCATGGACCGGTTTTCCCGGTAATCCGTATTTGCG (site CACTCCTCTAG) — lower, 1.11
- CACTCCTCATGGACCGGTTTTCCCGGTAATCCGTATTTGCG (site CACTCCTCTCG) — higher, 1.71
- CACTCCTCATGGACCGGTTTTCCCGGTAATCCGTATTTGCG (site CACTCCTCTGG) — lower, 0
- CACTCCTCATGGACCGGTTTTCCCGGTAATCCGTATTTGCG (site CACTCCTCTTG) — higher, 2.29
- CACTCCTCATGGACCGGTTTTCCCGGTAATCCGTATTTGGC (site CACTCCTCTGA) — lower, 0.526
- CACTCCTCATGGACCGGTTTTCCCGGTAATCCGTATTTGGC (site CACTCCTCTGC) — higher, 2.75
- CACTCCTCATGGACCGGTTTTCCCGGTAATCCGTATTTGGC (site CACTCCTCTGG) — lower, 0.943
- CACTCCTCATGGACCGGTTTTCCCGGTAATCCGTATTTGGC (site CACTCCTCTGT) — higher, 2.45
- CACTGGGCATGGACCGGTTTTCCCGGTAATCCGTATTTGGA (site CACTAGGCTTC) — lower, 0.812
- CACTGGGCATGGACCGGTTTTCCCGGTAATCCGTATTTGGA (site CACTCGGCTTC) — lower, 0.0182

Source: the supplement of paper PMC11208160
